Test results published in patent US5981517A, “Androstene derivatives” (priority 1997, dated 1999).
pIC50: −log10 of the molar value. Like-named read-outs stand apart in the source and are kept apart here. One block for each molecule: values may come before it.

Tests used:
[1] = tested on: forearm of a human volunteer; test: Human vasoconstriction test; type: in vivo; settings: 10 mM
Experimental: Test compounds (10 mM) were dissolved in ethanol/propylene glycol (9/1) solution, and 50 μL of the mixtures were applied to circular patches, 8 mm in diameter. After ethanol evaporation, the patches were applied to the forearm of a human volunteer, and covered with a water impervious film for 3 hours. The intensity of vasoconstriction was judged 1, 8, 17 and 24 hours after the patches were removed.
The grading scale for the vasoconstriction activity was as follows: 0, normal skin; 1, slight pallor of indistinct outline; 2, pallor with at least two corners outlined; 3, even pallor with a clear outline of the application sites; 4, very intense pallor.

[2] = tested on: forearms of a human volunteer; test: Further human vasoconstriction testing, Method 1; type: in vivo; settings: 10 mM
Experimental: The mixtures, in 50 μL amounts, were applied to circular patches (8 mm diameter). After evaporation of ethanol, the patches were applied to the forearms of a human volunteer, and covered with a water impervious film for 3 hr. The intensity of vasoconstriction (scale 0-4) was judged at various time intervals after removal of the patches. The grading scale was as follows: 0, normal skin; 1, slight pallor of indistinct outline; 2, pallor with at least two corners outlined; 3, even pallor with a clear outline of the application sites; 4, very intense pallor. The skin tests (2-4 tests on each compound) were performed on the same person.

[3] = biological target: T1, rat lung glucocorticoid receptor (Rattus norvegicus, UniProt P06536); test: Receptor binding studies ([3H]triamcinolone acetonide displacement); settings: for Relative binding affinity (RBA): with respect to dexamethasone (RBA = 100); for RBA: further receptor binding studies (Table X), dexamethasone = 100, * mean ± SE of 3-5 results
T1 construct: Immediately after resection of the lungs, the tissue was frozen in ice; The cytosol was prepared; from tissue; host or cells: lung cytosol of adrenalectomized male Sprague-Dawley rats
T1 sequence (P06536 1-795): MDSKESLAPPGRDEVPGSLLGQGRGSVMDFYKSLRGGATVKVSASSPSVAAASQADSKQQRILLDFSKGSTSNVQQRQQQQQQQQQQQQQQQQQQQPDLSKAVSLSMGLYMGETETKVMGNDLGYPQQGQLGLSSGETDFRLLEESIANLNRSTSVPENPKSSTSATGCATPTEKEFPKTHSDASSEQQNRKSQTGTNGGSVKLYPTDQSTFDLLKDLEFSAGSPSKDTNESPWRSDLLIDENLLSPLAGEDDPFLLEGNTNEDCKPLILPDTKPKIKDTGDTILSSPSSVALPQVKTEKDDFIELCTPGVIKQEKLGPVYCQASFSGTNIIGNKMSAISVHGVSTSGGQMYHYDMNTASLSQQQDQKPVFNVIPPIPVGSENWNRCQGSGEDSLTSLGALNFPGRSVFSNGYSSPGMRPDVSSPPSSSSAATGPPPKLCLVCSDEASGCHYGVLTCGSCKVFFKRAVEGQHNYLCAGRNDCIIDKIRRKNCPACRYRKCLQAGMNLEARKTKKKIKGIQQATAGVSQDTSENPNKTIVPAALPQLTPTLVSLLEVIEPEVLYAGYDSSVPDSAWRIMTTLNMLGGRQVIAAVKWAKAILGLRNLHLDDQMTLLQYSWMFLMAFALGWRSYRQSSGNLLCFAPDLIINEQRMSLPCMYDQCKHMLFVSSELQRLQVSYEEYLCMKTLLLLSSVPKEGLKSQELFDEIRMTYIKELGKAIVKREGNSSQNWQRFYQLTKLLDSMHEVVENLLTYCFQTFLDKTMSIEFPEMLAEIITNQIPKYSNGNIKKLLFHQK
Experimental: Male Sprague-Dawley rats, each weighing 150 to 200 g, were used 6 days after adrenalectomy. Rats were sacrificed by decapitation. Immediately after resection of the lungs, the tissue was frozen in ice. […] Portions (5 ml) of the cytosol were frozen in liquid nitrogen and stored at -80° C.
The cytosol was thawed in a water bath and diluted with 1 part of incubation buffer containing a 15 mM concentration of diisopropyl fluorophosphate. […] After a 2 hour incubation period at room temperature (24° C.), the unbound steroid was removed by addition of a 2% suspension of activated charcoal in incubation buffer (400 μL). The mixture was incubated for 5 minutes at room temperature and then was centrifuged at about 10,000 g for 3 minutes in the microcentrifuge. The radioactivity (cpm) in the supernatant (400 μL) was determined by liquid scintillation counting.
The data is fitted to the following logistic function:
B=T-T * C^N /(C^N +IC50^N)+NS,
where B=CPM in the presence of competitor, T=CPM in the absence of competitor, C=competitor concentration, N=Hill slope factor, and NS=cpm under non-specific binding conditions.
For the representative compound of the invention B, receptor binding affinity was investigated with and without Δ^1 -cortienic acid in the incubation solution to study the effect of Δ^1 -cortienic acid on the receptor binding.
Further studies to evaluate the relative receptor binding affinities of compounds of the invention, other compounds of formula (VII) hereinabove and well-known anti-inflammatory steroids were undertaken, using the methods described in the RECEPTOR BINDING STUDIES set forth above. […] For comparison purposes, the following compounds having formula (VII) above were also tested: […]

[4] = tested on: forearm of a human volunteer; test: Further human vasoconstriction testing, Method 2; type: in vivo; set-up: key: +: "positive" (pallor could be observed); -: "negative" (pallor could not be detected)
Experimental: The mixtures, in 20 μL amounts, were applied to circular patches (1/4 inch diameter). The patches were applied to the forearm of a human volunteer, and covered with a water impervious film for 3 hr. Vasoconstriction activity was judged by the appearance of pallor at various time points after the patches were removed. Tests were performed on the same person and the results were obtained from 2-4 observations.
In TABLE XIV above, "-" means a negative result was obtained. In other tables herein, "-" means not tested.
In TABLE XIV above, the results of a simpler method of judging vasoconstriction activity was used in which only "positive" (pallor could be observed) or "negative" (pallor could not be detected) results were recorded.

[5] = rat lung cytosol, 10 nM [3H]triamcinolone acetonide, with Δ1-cortienic acid, 2 h, 24° C., read-out: IC50

Compound: C[C@@H]1C[C@H]2[C@@H]3CCC4=CC(=O)C=C[C@]4(C)[C@@]3(F)[C@@H](O)C[C@]2(C)[C@@]1(O)C(=O)CO [Dexamethasone, reference compound]
Vasoconstriction activity ([1]; 1 hour after patch removal): 0
Vasoconstriction activity ([1]; 8 hours after patch removal): 1
Vasoconstriction activity ([1]; 17 hours after patch removal): 1
Vasoconstriction activity ([1]; 24 hours after patch removal): 1
Vasoconstriction activity ([2]; 3 Hours): 1
Vasoconstriction activity ([2]; 20 Hours): 1

Compound: COC(=O)[C@@]1(O)CC[C@H]2[C@@H]3CCC4=CC(=O)C=C[C@]4(C)[C@H]3[C@@H](O)C[C@@]21C [E]
pIC50 [3]: < 5.70
Relative binding affinity (RBA) ([3]; with Δ1-cortienic acid): < 1

Compound: CCOC(=O)[C@@]1(O)CC[C@H]2[C@@H]3CCC4=CC(=O)C=C[C@]4(C)[C@H]3[C@@H](O)C[C@@]21C [F]
pIC50 [3, 5]: < 5.70
Relative binding affinity (RBA) ([3]; with Δ1-cortienic acid): < 1

RBA [3]: 136 ± 5
Compound: CC(=O)[C@@]1(O)CC[C@H]2[C@@H]3C[C@H](C)C4=CC(=O)C=C[C@]4(C)[C@@]3(F)[C@@H](O)C[C@@]21C [Fluorometholone, reference compound]

Compound: CC(C)OC(=O)[C@@]1(O)CC[C@H]2[C@@H]3CCC4=CC(=O)C=C[C@]4(C)[C@H]3[C@@H](O)C[C@@]21C [G]
pIC50 [3, 5]: < 5.70
Relative binding affinity (RBA) ([3]; with Δ1-cortienic acid): < 1

Compound: C[C@]12C=CC(=O)C=C1CC[C@@H]1[C@@H]2[C@@H](O)C[C@@]2(C)[C@H]1CC[C@]2(OC(=O)C(Cl)Cl)C(=O)O [H, 17α-dichloroacetoxy-11β-hydroxyandrosta-1,4-dien-3-one-17β-carboxylic acid]
pIC50 [3, 5]: < 5.70
Relative binding affinity (RBA) ([3]; with Δ1-cortienic acid): < 2

Compound: C[C@@H]1C[C@H]2[C@@H]3CCC4=CC(=O)C=C[C@]4(C)[C@@]3(F)[C@@H](O)C[C@]2(C)[C@@]1(OC(=O)C(Cl)Cl)C(=O)OCCl [K, chloromethyl 17α-dichloroacetoxy-9α-fluoro-11β-hydroxy-16α-methylandrosta-1,4-dien-3-one-17β-carboxylate]
Vasoconstriction activity ([4]; 4 Hours, 0.01 mM): -
Vasoconstriction activity ([4]; 4 Hours, 0.05 mM): -
Vasoconstriction activity ([4]; 4 Hours, 0.1 mM): -
Vasoconstriction activity ([4]; 4 Hours, 0.5 mM): -
Vasoconstriction activity ([4]; 4 Hours, 1 mM): +
Vasoconstriction activity ([4]; 4 Hours, 5 mM): +
Vasoconstriction activity ([4]; 8 Hours, 0.01 mM): -
Vasoconstriction activity ([4]; 8 Hours, 0.05 mM): -
Vasoconstriction activity ([4]; 8 Hours, 0.1 mM): +
Vasoconstriction activity ([4]; 8 Hours, 0.5 mM): +
Vasoconstriction activity ([4]; 8 Hours, 1 mM): +
Vasoconstriction activity ([4]; 8 Hours, 5 mM): +
Vasoconstriction activity ([4]; 10-22 hours, 0.01 mM): -
Vasoconstriction activity ([4]; 10-22 hours, 0.05 mM): -
Vasoconstriction activity ([4]; 10-22 hours, 0.1 mM): -
Vasoconstriction activity ([4]; 10-22 hours, 0.5 mM): +
Vasoconstriction activity ([4]; 10-22 hours, 1 mM): +
Vasoconstriction activity ([4]; 10-22 hours, 5 mM): +
Vasoconstriction activity ([4]; 24 Hours, 0.01 mM): -
Vasoconstriction activity ([4]; 24 Hours, 0.05 mM): -
Vasoconstriction activity ([4]; 24 Hours, 0.1 mM): -
Vasoconstriction activity ([4]; 24 Hours, 0.5 mM): +
Vasoconstriction activity ([4]; 24 Hours, 1 mM): +
Vasoconstriction activity ([4]; 24 Hours, 5 mM): +

Compound: COC(=O)[C@@]1(OC(=O)CCl)[C@H](C)C[C@H]2[C@@H]3CCC4=CC(=O)C=C[C@]4(C)[C@@]3(F)[C@@H](O)C[C@@]21C [S]
Vasoconstriction activity ([4]; 4 Hours, 0.01 mM): -
Vasoconstriction activity ([4]; 4 Hours, 0.05 mM): -
Vasoconstriction activity ([4]; 4 Hours, 0.1 mM): -
Vasoconstriction activity ([4]; 4 Hours, 0.5 mM): -
Vasoconstriction activity ([4]; 4 Hours, 1 mM): -
Vasoconstriction activity ([4]; 4 Hours, 5 mM): -

Compound: CCOC(=O)[C@@]1(OC(=O)CCl)[C@H](C)C[C@H]2[C@@H]3CCC4=CC(=O)C=C[C@]4(C)[C@@]3(F)[C@@H](O)C[C@@]21C [T]
Vasoconstriction activity ([4]; 4 Hours, 0.01 mM): -
Vasoconstriction activity ([4]; 4 Hours, 0.05 mM): -
Vasoconstriction activity ([4]; 4 Hours, 0.1 mM): -
Vasoconstriction activity ([4]; 4 Hours, 0.5 mM): -
Vasoconstriction activity ([4]; 4 Hours, 1 mM): -
Vasoconstriction activity ([4]; 4 Hours, 5 mM): -

Compound: CC1(C)O[C@@H]2C[C@H]3[C@@H]4CCC5=CC(=O)C=C[C@]5(C)[C@@]4(F)[C@@H](O)C[C@]3(C)[C@]2(C(=O)CO)O1 [Triamcinolone acetonide, reference compound]
pIC50 [3]: 7.89
RBA [3]: 630
Relative binding affinity (RBA) ([3]; with Δ1-cortienic acid): 628
